Laboratory results: patent US11382912B2, “Controlled-release preparation” (NIPPON SHINYAKU CO., LTD., priority 2017, dated 2022)

Experiments:
[1] = pH of alkaline substance at 0.1 wt % in water; format: physicochemical; conditions: dissolved or dispersed in water at 0.1 wt %
Procedure: The pH of the alkaline substance was measured according to the following method.
The alkaline substance was dissolved (or dispersed) in water at 0.1 wt %, and the pH of the solution (or the dispersion) was determined using a pH METER HM-30R (manufactured by DKK-TOA Corporation).

PGI2 receptor = PGI2 receptor (Homo sapiens, UniProt P43119); conditions: known, PTL 7 to PTL 12; cited from earlier work
Chain of PGI2 receptor (P43119 whole entry, species assumed): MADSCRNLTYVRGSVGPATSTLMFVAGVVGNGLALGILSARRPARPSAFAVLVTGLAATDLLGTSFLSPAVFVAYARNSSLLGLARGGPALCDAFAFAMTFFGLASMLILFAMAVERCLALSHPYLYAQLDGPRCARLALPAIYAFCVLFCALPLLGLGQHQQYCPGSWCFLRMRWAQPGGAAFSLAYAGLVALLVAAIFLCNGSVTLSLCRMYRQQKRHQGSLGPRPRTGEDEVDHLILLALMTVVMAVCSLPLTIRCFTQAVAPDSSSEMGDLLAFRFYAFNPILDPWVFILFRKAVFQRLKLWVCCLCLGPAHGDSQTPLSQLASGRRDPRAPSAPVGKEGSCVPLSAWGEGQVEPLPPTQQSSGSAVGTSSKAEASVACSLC

[2] = known, NPL 1; cited from earlier work

Row | Compound | pH [1] | PGI2 receptor agonistic effect (PGI2 receptor) | Solubility [2]
1 | [Mg+2].[OH-].[OH-] [Magnesium hydroxide] | 10.3 | – | –
2 | [Ca+2].[OH-].[OH-] [Calcium hydroxide] | 12.2 | – | –
3 | CNC[C@H](O)[C@@H](O)[C@H](O)[C@H](O)CO [Meglumine] | 10.6 | – | –
4 | [O]=[Mg] [Magnesium oxide] | 10.7 | – | –
5 | O=C([O-])[O-].[Ca+2] [Calcium carbonate] | 9.8 | – | –
6 | O=C([O-])[O-].[Na+].[Na+] [Dried sodium carbonate] | 11.0 | – | –
7 | O=C([O-])O.[Na+] [Sodium bicarbonate] | 8.5 | – | –
8 | O=C([O-])CC(O)(CC(=O)[O-])C(=O)[O-].[Na+].[Na+].[Na+] [Trisodium citrate] | 8.3 | – | –
9 | CC(C)N(CCCCOCC(=O)NS(C)(=O)=O)c1cnc(-c2ccccc2)c(-c2ccccc2)n1 [Compound A, 2-{4-[N-(5,6-diphenylpyrazin-2-yl)-N-isopropylamino]butyloxy}-N-(methylsulfonyl)acetamide] | – | excellent | depend on pH
10 | O=P([O-])([O-])O.[Na+].[Na+] [Sodium hydrogen phosphate] | 9.2 | – | –
11 | O=C([O-])[O-].[K+].[K+] [Potassium carbonate] | 10.9 | – | –
12 | CC(=O)[O-].[Na+] [Sodium acetate] | 7.6 | – | –
